Measurements taken from ChEMBL document CHEMBL1122874, “Orally absorbable cephalosporin antibiotics. 1. Structure-activity relationships of benzothienyl- and naphthylglycine derivatives of 7-aminodeacetoxycephalosporanic acid” (1985).
≈ marks a conversion by molar mass, not a printed value.

Experiments:
Haemophilus influenzae [1] = assay: Antibacterial activity against resistant Haemophilus influenzae 76.; assay type: functional
Haemophilus influenzae [2] = assay: Antibacterial activity against sensitive Haemophilus influenzae C.L.; assay type: functional
[3] = test system: Staphylococcus epidermidis; assay: Antibacterial activity against Staph. epidermis EP11; assay type: functional
Streptococcus pyogenes [4] = assay: Antibacterial activity against Streptococcus pyogenes C203.; assay type: functional
Streptococcus pyogenes [5] = assay: Antibacterial activity in mice infected with Streptococcus pyogenes C203; assay type: functional
Streptococcus pyogenes [6] = assay: Antibacterial activity in mice infected with Streptococcus pyogenes C203 by subcutaneous administration; assay type: functional
Staphylococcus aureus [7] = assay: Antibacterial activity in mice infected with Staphylococcus aureus 3055 by oral administration; assay type: functional
Staphylococcus aureus [8] = assay: Antibacterial activity in mice infected with Staphylococcus aureus 3055 by subcutaneous administration; assay type: functional
Staphylococcus aureus [9] = assay: Antibacterial activity against penicillin G sensitive Staphylococcus aureus X1.1.; assay type: functional
Streptococcus pneumoniae [10] = assay: Antibacterial activity in mice infected with Streptococcus pneumoniae Park1 by oral administration; assay type: functional
Streptococcus pneumoniae [11] = assay: Antibacterial activity in mice infected with Streptococcus pneumoniae Park1 by subcutaneous administration; assay type: functional
Streptococcus pneumoniae [12] = assay: Antibacterial activity in mice infected with Streptococcus pneumoniae Park1; assay type: functional
Streptococcus pyogenes [13] = assay: Antibacterial activity in mice infected with Streptococcus pyogenes C203 by oral administration; assay type: functional
Staphylococcus aureus [14] = assay: Antibacterial activity in mice infected with Staphylococcus aureus 3055; assay type: functional
Streptococcus pneumoniae [15] = assay: Antibacterial activity against Streptococcus pneumoniae Park.
Streptococcus pyogenes [16] = assay: Antibacterial activity in mice infected with Streptococcus pyogenes C203 after oral administration; assay type: functional
Streptococcus pyogenes [17] = assay: Antibacterial activity in mice infected with Streptococcus pyogenes C203 after subcutaneous administration; assay type: functional
Streptococcus = assay: Antibacterial activity against Streptococcus group D X66.; assay type: functional
Staphylococcus aureus [18] = assay: Antibacterial activity against methicillin resistant Staphylococcus aureus S13E.; assay type: functional
Staphylococcus aureus [19] = assay: Antibacterial activity against methicillin resistant Staphylococcus aureus X400; assay type: functional
Staphylococcus aureus [20] = assay: Antibacterial activity against penicillin G sensitive Staphylococcus aureus V41; assay type: functional
Staphylococcus aureus [21] = assay: Antibacterial activity in mice infected with Staphylococcus aureus 3055 after oral administration; assay type: functional
Staphylococcus aureus [22] = assay: Antibacterial activity in mice infected with Staphylococcus aureus 3055 after subcutaneous administration; assay type: functional
Streptococcus pneumoniae [23] = assay: Antibacterial activity in mice infected with Streptococcus pneumoniae Park1 after oral administration; assay type: functional
Streptococcus pneumoniae [24] = assay: Antibacterial activity in mice infected with Streptococcus pneumoniae Park1 after subcutaneous administration; assay type: functional
Streptococcus pneumoniae [25] = assay: Antibacterial activity against Streptococcus pneumoniae Park.; assay type: functional

| Compound | MIC (Haemophilus influenzae [1]) [µg/mL] | MIC (Haemophilus influenzae [2]) [µg/mL] | MIC [3] [µg/mL] | MIC (Streptococcus pyogenes [4]) [µg/mL] | MIC (Streptococcus pyogenes [5]) [µg/mL] | MIC (Staphylococcus aureus [9]) [µg/mL] | MIC (Staphylococcus aureus [14]) [µg/mL] | MIC (Streptococcus pneumoniae [15]) [µg/mL] | MIC (Streptococcus) [µg/mL] | MIC (Staphylococcus aureus [18]) [µg/mL] | MIC (Staphylococcus aureus [19]) [µg/mL] | MIC (Staphylococcus aureus [20]) [µg/mL] | other results |
| --- | --- | --- | --- | --- | --- | --- | --- | --- | --- | --- | --- | --- | --- |
| CC1=C(C(=O)O)N2C(=O)C(NC(=O)[C@@H](N)c3cc4ccccc4s3)C2SC1 (stereo partly specified) | 1 (≈ 2.48 µM) | 32 (≈ 79.3 µM) | 2 (≈ 4.96 µM) | 0.5 (≈ 1.24 µM) | 0.25 (≈ 0.62 µM) | 0.5 (≈ 1.24 µM) | 0.25 (≈ 0.62 µM) | 2 (≈ 4.96 µM) | – | – | – | – | ED50 (Streptococcus pyogenes [6]): 2.6 mg/kg; ED50 (Staphylococcus aureus [7]): 0.13 mg/kg; ED50 (Staphylococcus aureus [8]): 0.13 mg/kg; ED50 (Streptococcus pneumoniae [10]): 31 mg/kg; ED50 (Streptococcus pneumoniae [11]): 15 mg/kg; MIC (Streptococcus pneumoniae [12]): 1 µg/mL (≈ 2.48 µM); ED50 (Streptococcus pyogenes [13]): 2.3 mg/kg |
| CC1=C(C(=O)O)N2C(=O)[C@@H](NC(=O)[C@H](N)c3ccccc3)[C@H]2SC1 [CEPHALEXIN ANHYDROUS] | – | – | – | 0.5 (≈ 1.44 µM) | 0.5 (≈ 1.44 µM) | 4 (≈ 11.5 µM) | 1 (≈ 2.88 µM) | 1 (≈ 2.88 µM) | – | – | – | – | ED50 (Staphylococcus aureus [7]): 0.34 mg/kg; ED50 (Staphylococcus aureus [8]): 0.2 mg/kg; ED50 (Streptococcus pneumoniae [10]): 51 mg/kg; ED50 (Streptococcus pneumoniae [11]): 23 mg/kg; ED50 (Streptococcus pyogenes [16]): 3.3 mg/kg; ED50 (Streptococcus pyogenes [17]): 2.9 mg/kg |
| CC1=C(C(=O)O)N2C(=O)C(NC(=O)[C@H](N)c3csc4ccc(F)cc34)C2SC1 (stereo partly specified) | 4 (≈ 9.49 µM) | 4 (≈ 9.49 µM) | 8 (≈ 19 µM) | 0.25 (≈ 0.593 µM) | – | 1 (≈ 2.37 µM) | – | 1 (≈ 2.37 µM) | 128 (≈ 304 µM) | 8 (≈ 19 µM) | 64 (≈ 152 µM) | 8 (≈ 19 µM) | – |
| CC1=C(C(=O)O)N2C(=O)C(NC(=O)[C@H](N)c3cccc4ccccc34)C2SC1 (stereo partly specified) | 2 (≈ 5.03 µM) | 8 (≈ 20.1 µM) | 8 (≈ 20.1 µM) | 2 (≈ 5.03 µM) | – | 1 (≈ 2.52 µM) | – | 2 (≈ 5.03 µM) | 128 (≈ 322 µM) | 32 (≈ 80.5 µM) | 64 (≈ 161 µM) | 32 (≈ 80.5 µM) | – |
| CC1=C(C(=O)O)N2C(=O)C(NC(=O)[C@H](N)c3csc4cc(Cl)c(Cl)cc34)C2SC1 (stereo partly specified) | 1 (≈ 2.12 µM) | 4 (≈ 8.47 µM) | 4 (≈ 8.47 µM) | 0.25 (≈ 0.529 µM) | – | 1 (≈ 2.12 µM) | – | 0.5 (≈ 1.06 µM) | – | 4 (≈ 8.47 µM) | 64 (≈ 135 µM) | 8 (≈ 16.9 µM) | – |
| CC1=C(C(=O)O)N2C(=O)C(NC(=O)[C@@H](N)c3csc4ccccc34)C2SC1 (stereo partly specified) | 0.5 (≈ 1.24 µM) | 2 (≈ 4.96 µM) | – | 0.5 (≈ 1.24 µM) | 0.5 (≈ 1.24 µM) | 1 (≈ 2.48 µM) | 1 (≈ 2.48 µM) | 0.5 (≈ 1.24 µM) | 128 (≈ 317 µM) | – | – | – | ED50 (Staphylococcus aureus [21]): 0.6 mg/kg; ED50 (Staphylococcus aureus [22]): 0.4 mg/kg; ED50 (Streptococcus pneumoniae [23]): 16 mg/kg; ED50 (Streptococcus pneumoniae [24]): 18 mg/kg; MIC (Streptococcus pneumoniae [12]): 1 µg/mL (≈ 2.48 µM); ED50 (Streptococcus pyogenes [16]): 1.7 mg/kg; ED50 (Streptococcus pyogenes [17]): 2.3 mg/kg |
| CC1=C(C(=O)O)N2C(=O)C(NC(=O)[C@H](N)c3cccc4ccc(Cl)cc34)C2SC1 (stereo partly specified) | 4 (≈ 9.26 µM) | 16 (≈ 37 µM) | 2 (≈ 4.63 µM) | 0.25 (≈ 0.579 µM) | – | 1 (≈ 2.32 µM) | – | – | – | 4 (≈ 9.26 µM) | 16 (≈ 37 µM) | 4 (≈ 9.26 µM) | – |
| CC1=C(C(=O)O)N2C(=O)C(NC(=O)[C@H](N)c3csc4cccc(F)c34)C2SC1 (stereo partly specified) | 4 (≈ 9.49 µM) | 16 (≈ 38 µM) | – | 1 (≈ 2.37 µM) | – | 4 (≈ 9.49 µM) | – | – | – | – | – | – | MIC (Streptococcus pneumoniae [25]): 4 µg/mL (≈ 9.49 µM) |
| CC1=C(C(=O)O)N2C(=O)C(NC(=O)[C@H](N)c3csc4ccc(Cl)cc34)C2SC1 (stereo partly specified) | 0.5 (≈ 1.14 µM) | – | 4 (≈ 9.13 µM) | 0.125 (≈ 0.285 µM) | – | 0.5 (≈ 1.14 µM) | – | 0.25 (≈ 0.571 µM) | 64 (≈ 146 µM) | 2 (≈ 4.57 µM) | 16 (≈ 36.5 µM) | 4 (≈ 9.13 µM) | – |
| CC1=C(C(=O)O)N2C(=O)C(NC(=O)[C@H](N)c3csc4cc(Cl)ccc34)C2SC1 (stereo partly specified) | 1 (≈ 2.28 µM) | 8 (≈ 18.3 µM) | 4 (≈ 9.13 µM) | 0.5 (≈ 1.14 µM) | – | 1 (≈ 2.28 µM) | – | 1 (≈ 2.28 µM) | 128 (≈ 292 µM) | 8 (≈ 18.3 µM) | 16 (≈ 36.5 µM) | 8 (≈ 18.3 µM) | – |
| N[C@@H](C(=O)N[C@@H]1C(=O)N2C(C(=O)O)=C(Cl)CS[C@H]12)c1ccccc1 [CEFACLOR ANHYDROUS] | – | – | – | – | 0.25 (≈ 0.68 µM) | – | 1 (≈ 2.72 µM) | – | – | – | – | – | ED50 (Staphylococcus aureus [7]): 0.13 mg/kg; ED50 (Staphylococcus aureus [8]): 0.03 mg/kg; ED50 (Streptococcus pneumoniae [10]): 10.7 mg/kg; ED50 (Streptococcus pneumoniae [11]): 11.5 mg/kg; MIC (Streptococcus pneumoniae [12]): 2 µg/mL (≈ 5.44 µM); ED50 (Streptococcus pyogenes [16]): 0.8 mg/kg; ED50 (Streptococcus pyogenes [17]): 1.4 mg/kg |
